Tests used:
MDR1 and BCRP = test: In vitro human transporter efflux (MDCK-MDR1-BCRP); assay type: in vitro ADME; conditions: human, pH 7.4, Papp(B to A)/Papp(A to B), 1 or 0.1 μM, 90-min incubation
Procedure: In Vitro Human Transporter Efflux
MDCKII cells expressing MDR1 and BCRP were seeded onto polyethylene membranes in 96-well Transwell insert systems at a density to form a confluent cell monolayer. […] The final percent volume of the organic solvent was less than 1%. Permeation of the test compounds from A to B direction and from B to A direction was determined over a 90-min incubation at 37° C. and 5% CO2 with a relative humidity of 95%. At the end of the incubation, samples from the apical and basolateral side were taken and then precipitated with cold acetonitrile containing internal standard. After centrifugation at 4000 rpm, the supernatant was diluted with 0.1% formic acid aqueous solution and quantified by LC-MS/MS. The integrity of the cell monolayers was confirmed by using the marker Lucifer yellow.
(1) The efflux ratio was calculated using the following equation Efflux ratio=Papp(B to A)/Papp(A to B)
(2) where dCr/dt is the cumulative concentration of the compound in the receiver chamber as a function of time (in μM/s); Vr is the solution volume in the receiver chamber (0.1 ml on the apical side and 0.3 ml on the basolateral side); A is the surface area for the transport, that is, 0.11 cm2 for the area of the monolayer; and CO is the initial concentration in the donor chamber (in μM).

PARP2 = biological target: T1, PARP2 (Homo sapiens, UniProt Q9UGN5); test: PARP fluorescence anisotropy binding assay, PARP2; conditions: recombinant full length PARP2
T1 construct: Recombinant full length PARP2 protein
Procedure: (§1) PARP Fluorescence Anisotropy Binding Assays
(§2) Recombinant full length PARP2 protein was diluted to 6 nM with 50 mM Tris pH 8, 0.001% Triton X100, 10 mM MgCl2, 150 mM NaCl and incubated for four hours with an equivalent volume of 2 nM fluorescent probe diluted with 50 mM Tris pH 8, 0.001% Triton X100, 10 mM MgCl2, 150 mM NaCl. The final DMSO concentration of the probe was kept below 1% (v/v).
(§3) Fluorescence anisotropy of the probe when bound to the proteins was measured using a BMG Pherastar FSX© in the presence of test compounds or solvent control and the effect on anisotropy determined. % inhibition values for different test compound concentrations were calculated and fitted to a four parameter logistic plot in order to determine the IC50 value.

PARP3 = biological target: T2, PARP3 (Homo sapiens, UniProt Q9Y6F1); test: PARP fluorescence anisotropy binding assay, PARP3; conditions: recombinant full length PARP3
T2 construct: Recombinant full length PARP3 protein
T2 sequence (Q9Y6F1 1-533): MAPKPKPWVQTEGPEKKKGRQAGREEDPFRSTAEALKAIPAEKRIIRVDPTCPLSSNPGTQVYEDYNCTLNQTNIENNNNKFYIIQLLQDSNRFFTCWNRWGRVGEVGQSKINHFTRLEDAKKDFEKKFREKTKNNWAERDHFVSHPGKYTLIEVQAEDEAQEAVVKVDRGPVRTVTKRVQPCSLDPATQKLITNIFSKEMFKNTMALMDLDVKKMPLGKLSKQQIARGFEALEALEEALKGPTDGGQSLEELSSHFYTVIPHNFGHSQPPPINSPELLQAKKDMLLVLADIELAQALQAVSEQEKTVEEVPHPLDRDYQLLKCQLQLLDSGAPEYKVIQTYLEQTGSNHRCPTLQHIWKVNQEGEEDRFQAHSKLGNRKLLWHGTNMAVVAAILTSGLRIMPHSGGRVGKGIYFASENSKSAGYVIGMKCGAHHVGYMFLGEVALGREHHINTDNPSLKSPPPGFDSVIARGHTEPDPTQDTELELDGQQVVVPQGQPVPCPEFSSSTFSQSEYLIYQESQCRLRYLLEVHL
Text: as §1

PARP5a = PARP5a (Homo sapiens, UniProt O95271); test: PARP fluorescence anisotropy binding assay, PARP5a binding domain; conditions: recombinant PARP5a binding domain
Chain of PARP5a (O95271 1112-1317): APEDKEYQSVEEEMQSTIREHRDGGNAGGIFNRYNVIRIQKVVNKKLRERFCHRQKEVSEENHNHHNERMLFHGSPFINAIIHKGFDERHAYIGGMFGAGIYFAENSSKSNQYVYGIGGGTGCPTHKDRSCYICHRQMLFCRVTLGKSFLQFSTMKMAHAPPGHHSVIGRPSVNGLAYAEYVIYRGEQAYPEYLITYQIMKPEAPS
Text: as §1

PARP6 = biological target: T3, PARP6 (Homo sapiens, UniProt Q2NL67); test: PARP fluorescence anisotropy binding assay, PARP6; conditions: recombinant full length GST tagged PARP6
T3 construct: Recombinant full length GST tagged PARP6 protein; GST
T3 sequence (Q2NL67 whole entry): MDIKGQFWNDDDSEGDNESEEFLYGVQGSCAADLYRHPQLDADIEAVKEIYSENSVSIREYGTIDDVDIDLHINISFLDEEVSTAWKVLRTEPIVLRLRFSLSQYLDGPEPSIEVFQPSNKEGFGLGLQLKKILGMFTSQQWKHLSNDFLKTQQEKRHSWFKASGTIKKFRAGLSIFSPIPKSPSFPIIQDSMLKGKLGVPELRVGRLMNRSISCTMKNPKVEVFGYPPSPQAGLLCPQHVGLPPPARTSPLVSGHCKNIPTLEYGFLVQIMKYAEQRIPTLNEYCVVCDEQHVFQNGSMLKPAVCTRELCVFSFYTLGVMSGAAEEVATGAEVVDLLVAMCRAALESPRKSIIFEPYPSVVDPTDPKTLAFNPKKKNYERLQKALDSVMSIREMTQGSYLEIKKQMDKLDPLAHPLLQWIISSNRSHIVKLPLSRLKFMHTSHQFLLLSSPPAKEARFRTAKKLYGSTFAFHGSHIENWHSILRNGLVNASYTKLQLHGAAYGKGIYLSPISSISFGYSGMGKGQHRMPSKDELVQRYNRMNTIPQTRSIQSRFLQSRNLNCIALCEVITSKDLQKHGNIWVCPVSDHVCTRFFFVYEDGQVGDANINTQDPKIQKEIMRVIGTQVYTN
Procedure: as §1
as §2, with “length GST tagged PARP6” for “length PARP2”, “to 160” for “to 6”, “of 6” for “of 2”
as §3, with “value. Where necessary, the compound Ki can be determined from the IC50 value using a Munson Rodbard equation defined in Anal Biochem. 1980 Sep. 1; 107(1):220-39 and is based on the known KD of the probe binding to the relevant PARP protein” for “value.”

hERG = hERG (Homo sapiens, UniProt Q12809); test: hERG inhibition
Chain of hERG (Q12809 whole entry): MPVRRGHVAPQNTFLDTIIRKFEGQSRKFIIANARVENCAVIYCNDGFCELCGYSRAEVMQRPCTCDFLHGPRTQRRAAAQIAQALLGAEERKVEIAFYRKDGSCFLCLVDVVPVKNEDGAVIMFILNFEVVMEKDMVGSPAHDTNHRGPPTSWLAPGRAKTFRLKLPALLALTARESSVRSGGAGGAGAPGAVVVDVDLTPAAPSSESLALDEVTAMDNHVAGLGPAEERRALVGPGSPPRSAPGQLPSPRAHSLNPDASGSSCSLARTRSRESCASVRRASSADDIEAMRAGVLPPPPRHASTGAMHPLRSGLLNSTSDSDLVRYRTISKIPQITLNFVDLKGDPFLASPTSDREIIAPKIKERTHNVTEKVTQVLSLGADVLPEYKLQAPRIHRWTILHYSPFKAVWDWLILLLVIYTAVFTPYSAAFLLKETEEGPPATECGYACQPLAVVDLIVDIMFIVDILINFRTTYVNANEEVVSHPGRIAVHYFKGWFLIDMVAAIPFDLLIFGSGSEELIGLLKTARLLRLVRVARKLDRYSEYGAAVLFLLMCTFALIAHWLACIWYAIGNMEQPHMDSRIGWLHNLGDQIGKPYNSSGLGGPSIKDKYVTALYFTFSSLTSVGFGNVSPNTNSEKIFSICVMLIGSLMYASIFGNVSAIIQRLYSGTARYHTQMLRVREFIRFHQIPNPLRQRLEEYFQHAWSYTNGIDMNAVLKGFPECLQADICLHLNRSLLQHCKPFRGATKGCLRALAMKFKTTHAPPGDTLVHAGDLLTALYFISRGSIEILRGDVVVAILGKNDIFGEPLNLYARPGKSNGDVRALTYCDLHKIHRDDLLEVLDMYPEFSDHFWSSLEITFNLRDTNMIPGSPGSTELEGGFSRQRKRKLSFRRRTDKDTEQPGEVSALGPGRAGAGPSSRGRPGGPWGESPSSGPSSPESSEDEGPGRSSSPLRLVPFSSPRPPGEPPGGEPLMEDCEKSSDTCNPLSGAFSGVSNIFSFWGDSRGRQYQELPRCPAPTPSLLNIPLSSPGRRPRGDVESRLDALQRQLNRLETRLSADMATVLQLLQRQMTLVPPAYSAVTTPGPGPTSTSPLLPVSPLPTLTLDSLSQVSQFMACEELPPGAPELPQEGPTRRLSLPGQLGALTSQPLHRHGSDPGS
Text: It is well known that blockade of the cardiac ion channel coded by human ether-n-gogo-related gene (hERG) is a risk factor in drug discovery and development. Blockage of hERG can cause safety problems such as cardiac arrhythmia. Advantageously, the compounds of Formula I have low hERG activity.

BRCA2 (−/−) DLD1 cells = test: PARP proliferation assay (7 day compound dosing), BRCA2 (−/−) DLD1; assay type: cell-based; conditions: Homo sapiens, DLD-1, 168 h, BRCA2 −/− DLD-1 cells, 7 day dosing; read-out: BRCA2 −/− DLD-1 prolif. 7 d IC50
Procedure: (§4) PARP Proliferation Assay (7 Day Compound Dosing)
(§5) DLD1 and BRCA2 (−/−) DLD1 cells were harvested to a density of 5000 cells/ml and 2.5E4 cells/ml respectively in complete media, 40 μL/well seeded into 384-well plates (Greiner, Kremsmunster, Austria; 781090) using a Multidrop Combi then incubated at 37° C., 5% CO2 overnight. Next day (Day 1) using a Multidrop Combi add sytoxgreen (5 ul, 2 uM) and saponin (10 ul, 0.25% stock) to a day 0 plate, seal the plate using a black adhesive lid and incubate for >3 h at rt. Cells were imaged using Cell Insight (Thermo Fisher) fitted with a 4× objective. Test compounds are added using an Echo 555 and placed in incubator maintained at 37° C., 5% CO2 and incubated for 7 days. On Day 8 add sytox green (5 ul, 2 uM) and then saponin (10 ul, 0.25% stock) to plates, seal the plate using a black adhesive lid and incubate for >3 h at rt. Read all cells on the Cell Insight with 4× Objective. The rate of proliferation is determined in Genedata by assessing the total cell number output from the Cell Insight for Day 0 and Day 8 plates.

DLD1 cells = test: PARP proliferation assay (7 day compound dosing), WT DLD1; assay type: cell-based; conditions: Homo sapiens, 168 h; WT DLD-1 cells, 7 day dosing; read-out: WT DLD-1 prolif. 7 d IC50
Procedure: as §4, §5

T1 sequence (Q9UGN5 whole entry): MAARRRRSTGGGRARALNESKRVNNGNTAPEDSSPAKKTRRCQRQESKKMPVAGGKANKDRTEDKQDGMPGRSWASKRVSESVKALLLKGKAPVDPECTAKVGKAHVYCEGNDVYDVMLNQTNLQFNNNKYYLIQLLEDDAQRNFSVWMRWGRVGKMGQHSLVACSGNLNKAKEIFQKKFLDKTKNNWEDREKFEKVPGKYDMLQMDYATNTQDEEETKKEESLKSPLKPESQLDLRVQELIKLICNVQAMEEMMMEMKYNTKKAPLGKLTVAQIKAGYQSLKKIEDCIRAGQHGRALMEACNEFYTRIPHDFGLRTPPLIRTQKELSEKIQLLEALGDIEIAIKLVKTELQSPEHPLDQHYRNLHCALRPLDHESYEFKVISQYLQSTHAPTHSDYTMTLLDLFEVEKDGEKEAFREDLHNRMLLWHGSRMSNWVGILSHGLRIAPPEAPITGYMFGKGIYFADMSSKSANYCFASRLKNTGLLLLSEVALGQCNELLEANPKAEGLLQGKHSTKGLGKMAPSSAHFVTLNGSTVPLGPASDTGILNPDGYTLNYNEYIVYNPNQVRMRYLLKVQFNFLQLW

Compound	efflux ratio at 90 min (MDR1 and BCRP)	IC50 (PARP2)	IC50 (PARP3)	IC50 (PARP5a)	IC50 (PARP6)	IC50 (BRCA2 (−/−) DLD1 cells)	IC50 (DLD1 cells)	IC50 (hERG)
CNC(=O)c1ccc(N2CCN(Cc3ccc4nc(C(C)F)c(=O)[nH]c4c3F)CC2)c(C)n1 (single isomer, unassigned) [Example 14, 5-[4-[[5-fluoro-2-[(1S OR 1R)-1-fluoroethyl]-3-oxo-4H-quinoxalin-6-yl]methyl]piperazin-1-yl]-N,6-dimethyl-pyridine-2-carboxamide]	3.7							
CCc1nc2ccc(CN3CCN(c4ccc(C(=O)NC)nc4Cl)CC3)c(Cl)c2[nH]c1=O [Example 8, 6-chloro-5-[4-[(5-chloro-2-ethyl-3-oxo-4H-quinoxalin-6-yl)methyl]piperazin-1-yl]-N-methyl-pyridine-2-carboxamide]		> 66 µM	> 100 µM	> 100 µM	> 100 µM	0.012 µM	> 7.9 µM	> 40 µM
CCc1nc2ccc(CN3CCN(c4ccc(C(=O)NC)nc4)CC3)c(Cl)c2[nH]c1=O [Example 10, 5-[4-[(5-chloro-2-ethyl-3-oxo-4H-quinoxalin-6-yl)methyl]piperazin-1-yl]-N-methyl-pyridine-2-carboxamide]		> 100 µM	> 100 µM	> 100 µM	> 100 µM	> 30 µM	> 30 µM	> 40 µM
CNC(=O)c1ccc(N2CCN(Cc3ccc4nc(C)c(=O)[nH]c4c3Cl)CC2)cn1 [Example 16, 5-[4-[(5-chloro-2-methyl-3-oxo-4H-quinoxalin-6-yl)methyl]piperazin-1-yl]-N-methyl-pyridine-2-carboxamide]		> 100 µM	> 100 µM	> 29 µM	> 100 µM	3.62 µM	> 30 µM	> 40 µM
CNC(=O)c1ccc(N2CCN(Cc3ccc4nc(C)c(=O)[nH]c4c3Cl)CC2)c(F)n1 [Example 17, 5-[4-[(5-chloro-2-methyl-3-oxo-4H-quinoxalin-6-yl)methyl]piperazin-1-yl]-6-fluoro-N-methyl-pyridine-2-carboxamide]		> 100 µM	> 100 µM	> 100 µM	> 100 µM	1.05 µM	> 10 µM	> 40 µM
CNC(=O)c1ccc(N2CCN(Cc3ccc4nc(C)c(=O)[nH]c4c3Cl)CC2)c(C)n1 [Example 18, 5-[4-[(5-chloro-2-methyl-3-oxo-4H-quinoxalin-6-yl)methyl]piperazin-1-yl]-N,6-dimethyl-pyridine-2-carboxamide]		> 100 µM	> 100 µM	> 100 µM	> 100 µM	4.33 µM	21 µM	
CNC(=O)c1ccc(N2CCN(Cc3ccc4nc(C)c(=O)[nH]c4c3F)CC2)c(F)n1 [Example 20, 6-fluoro-5-[4-[(5-fluoro-2-methyl-3-oxo-4H-quinoxalin-6-yl)methyl]piperazin-1-yl]-N-methyl-pyridine-2-carboxamide]			> 100 µM	> 100 µM	> 100 µM			> 40 µM
CNC(=O)c1ccc(N2CCN(Cc3ccc4nc(C)c(=O)[nH]c4c3F)CC2)cn1 [Example 32, 5-[4-[(5-fluoro-2-methyl-3-oxo-4H-quinoxalin-6-yl)methyl]piperazin-1-yl]-N-methyl-pyridine-2-carboxamide]						1.08 µM	23 µM	> 40 µM
CNC(=O)c1ccc(N2CCN(Cc3ccc4nc(C(F)(F)F)c(=O)[nH]c4c3F)CC2)c(F)n1 [Example 48, 6-fluoro-5-[4-[[5-fluoro-3-oxo-2-(trifluoromethyl)-4H-quinoxalin-6-yl]methyl]piperazin-1-yl]-N-methyl-pyridine-2-carboxamide]						0.018 µM	27 µM	> 40 µM

Continued, in another order:

efflux ratio at 90 min (MDR1 and BCRP)	IC50 (PARP2)	IC50 (PARP3)	IC50 (PARP5a)	IC50 (PARP6)	IC50 (BRCA2 (−/−) DLD1 cells)	IC50 (DLD1 cells)	Compound	IC50 (hERG)
	> 100 µM	> 100 µM	> 100 µM	> 100 µM	0.01 µM	> 10 µM	CCc1nc2ccc(CN3CCN(c4ccc(C(=O)NC)nc4F)CC3)c(Cl)c2[nH]c1=O [Example 9, 5-[4-[(5-chloro-2-ethyl-3-oxo-4H-quinoxalin-6-yl)methyl]piperazin-1-yl]-6-fluoro-N-methyl-pyridine-2-carboxamide]	> 40 µM
	> 100 µM	> 100 µM	> 100 µM	> 100 µM	0.009 µM	> 30 µM	CCc1nc2ccc(CN3CCN(c4ccc(C(=O)NC)nc4C)CC3)c(Cl)c2[nH]c1=O [Example 11, 5-[4-[(5-chloro-2-ethyl-3-oxo-4H-quinoxalin-6-yl)methyl]piperazin-1-yl]-N,6-dimethyl-pyridine-2-carboxamide]	> 40 µM
					0.003 µM	> 30 µM	CCc1nc2ccc(CN3CCN(c4ccc(C(=O)NC)nc4C)CC3)c(F)c2[nH]c1=O [Example 23, 5-[4-[(2-ethyl-5-fluoro-3-oxo-4H-quinoxalin-6-yl)methyl]piperazin-1-yl]-N,6-dimethyl-pyridine-2-carboxamide]	> 40 µM
					0.003 µM	> 30 µM	CCc1nc2ccc(CN3CCN(c4ccc(C(=O)NC)nc4C(F)F)CC3)c(F)c2[nH]c1=O [Example 24, 6-(difluoromethyl)-5-[4-[(2-ethyl-5-fluoro-3-oxo-4H-quinoxalin-6-yl)methyl]piperazin-1-yl]-N-methyl-pyridine-2-carboxamide]	> 36 µM
					0.006 µM	6.3 µM	CCc1nc2ccc(CN3CCN(c4ccc(C(=O)NC)nc4F)CC3)c(F)c2[nH]c1=O [Example 27, 5-[4-[(2-ethyl-5-fluoro-3-oxo-4H-quinoxalin-6-yl)methyl]piperazin-1-yl]-6-fluoro-N-methyl-pyridine-2-carboxamide]	> 40 µM
					0.005 µM	> 10 µM	CCc1nc2ccc(CN3CCN(c4ccc(C(=O)NC)nc4)CC3)c(F)c2[nH]c1=O [Example 29, 5-[4-[(2-ethyl-5-fluoro-3-oxo-4H-quinoxalin-6-yl)methyl]piperazin-1-yl]-N-methyl-pyridine-2-carboxamide]	> 40 µM
					0.003 µM	> 30 µM	CNC(=O)c1ccc(N2CCN(Cc3ccc4nc(C)c(=O)[nH]c4c3F)CC2)c(Cl)n1 [Example 30, 6-chloro-5-[4-[(5-fluoro-2-methyl-3-oxo-4H-quinoxalin-6-yl)methyl]piperazin-1-yl]-N-methyl-pyridine-2-carboxamide]	> 40 µM

— patent US12421208B2, “Chemical compounds” (ASTRAZENECA AB, priority 2020, dated 2025)
